Laboratory results taken from patent US5849797A, “D-β-lysylmethanediamine derivatives and preparation thereof” (Zaidan Hojin Biseibutsu Kagaku Kenkyu Kai, priority 1994, dated 1998).
≈ marks a conversion by molar mass, not a printed value.

Experiments:
HIV (HTLV-IIIB strain) = assay: microbe, parasite or virus in culture; format: cell-based; conditions: Human immunodeficiency virus 1, IIIB, MT4, 96 h, MT-4 cells, 4 days, 90 at 0 μg/ml, read-out: Rate (%) of presence of HIV antigen-positive cells; for activity at 0.1 µg/mL: 0.1 μg/ml; for activity at 1 µg/mL: 1 μg/ml; for activity at 10 µg/mL: 10 μg/ml
S. aureus Smith = assay: Antibacterial activity, MIC by serial dilution method; format: cell-based; conditions: Staphylococcus aureus, 0.5% peptone agar, 37° C., 18 hours
Escherichia coli NIHJ = assay: as above; format: cell-based; conditions: 0.5% peptone agar, 37° C., 18 hours
E. coli K-12 = assay: as above; format: cell-based; conditions: Escherichia coli, K12, 0.5% peptone agar, 37° C., 18 hours
Micrococcus luteus FDA16 = assay: as above; format: cell-based; conditions: 0.5% peptone agar, 37° C., 18 hours
MT-4 cells = assay: Cytotoxicity to MT-4 cells; format: cell-based, human; set-up: key: -: That the cytotoxicity was not observed; conditions: absence of HIV
Experimental: Furthermore, cytotoxicity of the tested compound to the MT-4 cells was estimated. This was done by incubating the MT-4 cells at varying concentrations of the tested compound and in the absence of HIV but in the same manner of incubation and under the same conditions of incubation of MT-4 cells as those employed in the above-mentioned test procedures of assaying the activity of the tested compound to inhibit the infection of T-cells with HIV. That the cytotoxicity was not observed is represented by the symbol "-" in Table 2 below.

[1] = system: Shigella dysenteriae JS11910; assay: Antibacterial activity, MIC by serial dilution method; format: cell-based; conditions: JS11910, 18 h
P. mirabilis IFM OM-9 = assay: as above; format: cell-based; conditions: Proteus mirabilis, IFMOM9, 0.5% peptone agar, 37° C., 18 hours
Serratia marcescens = assay: as above; format: cell-based; conditions: 0.5% peptone agar, 37° C., 18 hours
[2] = system: Klebsiella pneumoniae PCI602; assay: as above; format: cell-based; conditions: 0.5% peptone agar, 37° C., 18 hours
B. subtilis NRRL B-558 = assay: as above; format: cell-based; conditions: Bacillus subtilis, NRRLB558, 0.5% peptone agar, 37° C., 18 hours
[3] = system: Staphylococcus aureus FDA209P; assay: as above; format: cell-based; conditions: 0.5% peptone agar, 37° C., 18 hours
[4] = system: Pseudomonas aeruginosa A3; assay: as above; format: cell-based; conditions: 0.5% peptone agar, 37° C., 18 hours
[5] = system: Providencia rettgeri GN311; assay: as above; format: cell-based; conditions: 0.5% peptone agar, 37° C., 18 hours
Bacillus anthracis = assay: microbe, parasite or virus in culture; format: cell-based; conditions: 18 h
B. subtilis PC1219 = assay: Antibacterial activity, MIC by serial dilution method; format: cell-based; conditions: Bacillus subtilis, 0.5% peptone agar, 37° C., 18 hours
Proteus vulgaris OX19 = assay: as above; format: cell-based; conditions: 0.5% peptone agar, 37° C., 18 hours
P. rettgeri GN466 = assay: as above; format: cell-based; conditions: Providencia rettgeri, 0.5% peptone agar, 37° C., 18 hours
[6] = system: mouse leukemia P388 cells; assay: Antitumor activity, growth inhibition of mouse leukemia P388 cells; format: cell-based
Experimental: In this way, such concentration of the tested compound which can inhibit the growth of the P388 cells by 50%, that is, the IC50 -value of the tested compound against the P388 cells was estimated. For comparison purpose, Bellenamine was tested in the same manner as above.

B. cereus ATCC10702 = assay: Antibacterial activity, MIC by serial dilution method; format: cell-based; conditions: Bacillus cereus, 0.5% peptone agar, 37° C., 18 hours
S. flexnelli 4b JS1811 = assay: as above; format: cell-based; conditions: 0.5% peptone agar, 37° C., 18 hours
Experimental: The minimum inhibitory concentrations (MIC.) of (R)-3,6-diamino-N-(2-aminoethyl)hexanamide of the formula (Ia) and (R)-3,6-diamino-N-(3-aminopropyl)hexanamide of the formula (Ib) against the growth of various bacteria were determined by a serial dilution method on a 0.5% peptone agar medium (incubated at 37° C. for 18 hours). The results obtained are shown in Table 1 below, in comparison with the MIC. of D-β-lysylmethanediamine (Bellenamine).

mice = assay: Acute toxicity by intravenous injection to mice; format: in vivo; conditions: 250 mg/kg
Solubility = format: physicochemical; conditions: in water

Row | SMILES | activity at 0.1 µg/mL (HIV (HTLV-IIIB strain)) [%] | activity at 1 µg/mL (HIV (HTLV-IIIB strain)) [%] | activity at 10 µg/mL (HIV (HTLV-IIIB strain)) [%] | MIC (S. aureus Smith) [µg/mL] | MIC (Escherichia coli NIHJ) [µg/mL] | MIC (E. coli K-12) [µg/mL] | MIC (Micrococcus luteus FDA16) [µg/mL] | Cytotoxicity (given in brackets) (MT-4 cells; 0.1 μg/ml) | Cytotoxicity (given in brackets) (MT-4 cells; 1 μg/ml) | Cytotoxicity (given in brackets) (MT-4 cells; 10 μg/ml) | MIC [1] [µg/mL] | MIC (P. mirabilis IFM OM-9) [µg/mL] | MIC (Serratia marcescens) [µg/mL] | MIC [2] [µg/mL] | MIC (B. subtilis NRRL B-558) [µg/mL] | MIC [3] [µg/mL] | MIC [4] [µg/mL] | MIC [5] [µg/mL] | MIC (Bacillus anthracis) [µg/mL] | MIC (B. subtilis PC1219) [µg/mL] | also measured
1 | NCCC[C@@H](N)CC(=O)NCN [Bellenamine, D-β-lysylmethanediamine] | 50 | 5 | 10 | 6.25 (≈ 35.9 µM) | 200 (≈ 1150 µM) | > 200 | > 200 | - | - | - | > 200 | 200 (≈ 1150 µM) | 200 (≈ 1150 µM) | > 200 | 12.5 (≈ 71.7 µM) | 50 (≈ 287 µM) | 200 (≈ 1150 µM) | 50 (≈ 287 µM) | 100 (≈ 574 µM) | 12.5 (≈ 71.7 µM) | MIC (Proteus vulgaris OX19): > 200 µg/mL; MIC (P. rettgeri GN466): 100 µg/mL (≈ 574 µM); IC50 [6]: 0.36 µg/mL (≈ 2.07 µM); MIC (B. cereus ATCC10702): 50 µg/mL (≈ 287 µM); MIC (S. flexnelli 4b JS1811): > 200 µg/mL
2 | NCCC[C@@H](N)CC(=O)NCCN [Compound (Ia), (R)-3,6-diamino-N-(2-aminoethyl)hexanamide] | 90 | 80 | 30 | 6.25 (≈ 33.2 µM) | 100 (≈ 531 µM) | 200 (≈ 1060 µM) | > 200 | - | - | - | 200 (≈ 1060 µM) | 25 (≈ 133 µM) | 100 (≈ 531 µM) | 200 (≈ 1060 µM) | 25 (≈ 133 µM) | 25 (≈ 133 µM) | 100 (≈ 531 µM) | 25 (≈ 133 µM) | 100 (≈ 531 µM) | 25 (≈ 133 µM) | Acute toxicity (death of mice) (mice): did not cause death of mice; MIC (Proteus vulgaris OX19): 200 µg/mL (≈ 1060 µM); Solubility (Solubility): highly soluble in water; MIC (P. rettgeri GN466): 50 µg/mL (≈ 266 µM); IC50 [6]: 0.012 µg/mL (≈ 0.0637 µM); MIC (B. cereus ATCC10702): 50 µg/mL (≈ 266 µM); MIC (S. flexnelli 4b JS1811): 100 µg/mL (≈ 531 µM)
3 | NCCCNC(=O)C[C@H](N)CCCN [Compound (Ib), (R)-3,6-diamino-N-(3-aminopropyl)hexanamide] | 80 | 10 | 5 | 50 (≈ 247 µM) | 200 (≈ 989 µM) | 200 (≈ 989 µM) | > 200 | - | - | - | 200 (≈ 989 µM) | 50 (≈ 247 µM) | 200 (≈ 989 µM) | > 200 | 100 (≈ 494 µM) | 200 (≈ 989 µM) | 200 (≈ 989 µM) | 100 (≈ 494 µM) | 200 (≈ 989 µM) | 100 (≈ 494 µM) | Acute toxicity (death of mice) (mice): did not cause death of mice; MIC (Proteus vulgaris OX19): 200 µg/mL (≈ 989 µM); Solubility (Solubility): highly soluble in water; MIC (P. rettgeri GN466): 50 µg/mL (≈ 247 µM); IC50 [6]: 0.028 µg/mL (≈ 0.138 µM); MIC (B. cereus ATCC10702): 200 µg/mL (≈ 989 µM); MIC (S. flexnelli 4b JS1811): 200 µg/mL (≈ 989 µM)
